Assay results: patent publication US11519834B2, “In vitro intestinal drug disposition device” (Enphasys AB, priority 2017, dated 2022)
Where two headings read alike, the source gives them in different places.

How the values were obtained:
[1] = compared with micronized (ball-milled) danazol, FIG. 7
Caco-2 cells [2] = system: Caco-2 cells
Experimental: (§1) The buffer was spiked with 10 μM lucifer yellow, which was used as a paracellular marker to check monolayer integrity. HBSS containing 4% bovine albumin serum was used in the receiver compartment to ensure sink conditions.
Caco-2 cells were grown on Transwell inserts (diameter […]) and mounted in the device resulting in a surface area of 28.27 cm^2. The receiver compartment contained 180 ml and the donor 60 ml. A magnetic stirrer was used to mix the buffer in the receiver compartment and a stirrer propeller to mix the buffer in the donor compartment.

Caco-2 cells [3] = assay: Permeation across Caco-2 monolayers in μFlux; assay type: in vitro ADME, human; details: Caco-2 monolayer, 0.78 cm^2, 10 μM lucifer yellow
Experimental: HBSS containing 4% bovine albumin serum was used in the receiver compartment to ensure sink conditions. […] Donor and receiver compartments were kept at 37° C. and typically contained 15 ml of buffer. Caco-2 cells were grown in Transwell plates and placed between the compartments resulting in a surface of 0.78 cm^2. Magnetic stirring was used for mixing in both the donor and receiver compartment. The μDISS profiler allowed in situ concentration monitoring with fiber optic probes.

Caco-2 cells [4] = assay: Permeation across Caco-2 monolayers in 12-well Transwell plate; assay type: in vitro ADME, human; details: Caco-2 monolayer, 1.12 cm^2, 10 μM lucifer yellow
Experimental: as §1
Caco-2 cells were grown on inserts in 12-well Transwell plates (surface area 1.12 cm^2). Transwell plates are typically used for in vitro absorption studies. The experiment was performed at 37° C. at 500 rpm with 400 μl of buffer at the donor and 1.2 ml of buffer at the receiver side.

Compound | absorption [1] | Lucifer yellow Papp (Caco-2 cells [2]) | Lucifer yellow Papp (Caco-2 cells [3]) | Lucifer yellow Papp (Caco-2 cells [4])
C#C[C@]1(O)CC[C@H]2[C@@H]3CCC4=Cc5oncc5C[C@]4(C)[C@H]3CC[C@@]21C [Unprocessed crystalline danazol, danazol] | much lower absorption | – | – | –
lucifer yellow | – | 2.19 ×10⁻⁶ cm/s | 39.37 ×10⁻⁶ cm/s | 1 ×10⁻⁶ cm/s
